Results as given in PubChem BioAssay (NCI).
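Five compound concentrations were applied to cells in 96-well plates for 48 hours; endpoints were derived by simple linear interpolation of the resulting dose-response curve. The concentration for full growth arrest is given as TGI.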

test system: RPMI-8226 leukemia; assay: NCI-60 cell line screen, 48 h

Row | Compound | TGI [µM]
1 | CCc1n[nH]c(=S)n1/N=C/c1ccc(-c2ccc([N+](=O)[O-])cc2)o1 | > 100
2 | CN(C)C(=S)NC(=S)Nc1ccc2ccccc2c1 | 45
3 | CCCCCCCCCCCCCCCC(=O)Nc1ccn(C2OC(CO)C(O)C2O)c(=O)n1 (stereo not drawn) | > 100

test system: OVCAR-4 ovarian; assay: NCI-60 cell line screen, 48 h

Row | Compound | TGI [µM]
4 | N#C/C(=C/c1cccc2ccccc12)C(=O)c1ccccc1 | > 100
5 | CCc1n[nH]c(=S)n1/N=C/c1ccc(-c2ccc([N+](=O)[O-])cc2)o1 | > 100
6 | CN(C)C(=S)NC(=S)Nc1ccc2ccccc2c1 | > 100
7 | CCCCCCCCCCCCCCCC(=O)Nc1ccn(C2OC(CO)C(O)C2O)c(=O)n1 (stereo not drawn) | > 100

test system: LXFL 529 NSCLC; assay: NCI-60 cell line screen, 48 h

Row | Compound | TGI [µM]
8 | CCc1n[nH]c(=S)n1/N=C/c1ccc(-c2ccc([N+](=O)[O-])cc2)o1 | > 100
9 | CN(C)C(=S)NC(=S)Nc1ccc2ccccc2c1 | 21.9
10 | CCCCCCCCCCCCCCCC(=O)Nc1ccn(C2OC(CO)C(O)C2O)c(=O)n1 (stereo not drawn) | > 100

test system: OVCAR-8 ovarian; assay: NCI-60 cell line screen, 48 h

Row | Compound | TGI [µM]
11 | N#C/C(=C/c1cccc2ccccc12)C(=O)c1ccccc1 | > 100
12 | CCc1n[nH]c(=S)n1/N=C/c1ccc(-c2ccc([N+](=O)[O-])cc2)o1 | > 100
13 | CN(C)C(=S)NC(=S)Nc1ccc2ccccc2c1 | 68.8
14 | CCCCCCCCCCCCCCCC(=O)Nc1ccn(C2OC(CO)C(O)C2O)c(=O)n1 (stereo not drawn) | > 100

test system: ACHN renal; assay: NCI-60 cell line screen, 48 h

Row | Compound | TGI [µM]
15 | N#C/C(=C/c1cccc2ccccc12)C(=O)c1ccccc1 | > 10
16 | CCc1n[nH]c(=S)n1/N=C/c1ccc(-c2ccc([N+](=O)[O-])cc2)o1 | > 100
17 | CN(C)C(=S)NC(=S)Nc1ccc2ccccc2c1 | > 83
18 | CCCCCCCCCCCCCCCC(=O)Nc1ccn(C2OC(CO)C(O)C2O)c(=O)n1 (stereo not drawn) | 99.4

test system: M14 melanoma; assay: NCI-60 cell line screen, 48 h

Row | Compound | TGI [µM]
19 | N#C/C(=C/c1cccc2ccccc12)C(=O)c1ccccc1 | 30.6
20 | CCc1n[nH]c(=S)n1/N=C/c1ccc(-c2ccc([N+](=O)[O-])cc2)o1 | > 100
21 | CN(C)C(=S)NC(=S)Nc1ccc2ccccc2c1 | 50.4
22 | CCCCCCCCCCCCCCCC(=O)Nc1ccn(C2OC(CO)C(O)C2O)c(=O)n1 (stereo not drawn) | 32.5

test system: XF 498 CNS; assay: NCI-60 cell line screen, 48 h

Row | Compound | TGI [µM]
23 | N#C/C(=C/c1cccc2ccccc12)C(=O)c1ccccc1 | 39.3
24 | CCc1n[nH]c(=S)n1/N=C/c1ccc(-c2ccc([N+](=O)[O-])cc2)o1 | > 100
25 | CN(C)C(=S)NC(=S)Nc1ccc2ccccc2c1 | 33.3

test system: CAKI-1 renal; assay: NCI-60 cell line screen, 48 h

Row | Compound | TGI [µM]
26 | N#C/C(=C/c1cccc2ccccc12)C(=O)c1ccccc1 | > 100
27 | CCc1n[nH]c(=S)n1/N=C/c1ccc(-c2ccc([N+](=O)[O-])cc2)o1 | > 100
28 | CN(C)C(=S)NC(=S)Nc1ccc2ccccc2c1 | 65.3
29 | CCCCCCCCCCCCCCCC(=O)Nc1ccn(C2OC(CO)C(O)C2O)c(=O)n1 (stereo not drawn) | > 100

test system: SR leukemia; assay: NCI-60 cell line screen, 48 h

Row | Compound | TGI [µM]
30 | N#C/C(=C/c1cccc2ccccc12)C(=O)c1ccccc1 | 88.3
31 | CCc1n[nH]c(=S)n1/N=C/c1ccc(-c2ccc([N+](=O)[O-])cc2)o1 | > 100
32 | CN(C)C(=S)NC(=S)Nc1ccc2ccccc2c1 | 35.8
33 | CCCCCCCCCCCCCCCC(=O)Nc1ccn(C2OC(CO)C(O)C2O)c(=O)n1 (stereo not drawn) | 62.7

test system: HCT-15 colon; assay: NCI-60 cell line screen, 48 h

Row | Compound | TGI [µM]
34 | N#C/C(=C/c1cccc2ccccc12)C(=O)c1ccccc1 | 39.3
35 | CCc1n[nH]c(=S)n1/N=C/c1ccc(-c2ccc([N+](=O)[O-])cc2)o1 | > 100
36 | CN(C)C(=S)NC(=S)Nc1ccc2ccccc2c1 | 59.9
37 | CCCCCCCCCCCCCCCC(=O)Nc1ccn(C2OC(CO)C(O)C2O)c(=O)n1 (stereo not drawn) | > 100

test system: BT-549 breast; assay: NCI-60 cell line screen, 48 h

Row | Compound | TGI [µM]
38 | CN(C)C(=S)NC(=S)Nc1ccc2ccccc2c1 | 53.9
39 | CCCCCCCCCCCCCCCC(=O)Nc1ccn(C2OC(CO)C(O)C2O)c(=O)n1 (stereo not drawn) | > 100

test system: SK-OV-3 ovarian; assay: NCI-60 cell line screen, 48 h

Row | Compound | TGI [µM]
40 | N#C/C(=C/c1cccc2ccccc12)C(=O)c1ccccc1 | > 100
41 | CCc1n[nH]c(=S)n1/N=C/c1ccc(-c2ccc([N+](=O)[O-])cc2)o1 | > 100
42 | CN(C)C(=S)NC(=S)Nc1ccc2ccccc2c1 | 55.3
43 | CCCCCCCCCCCCCCCC(=O)Nc1ccn(C2OC(CO)C(O)C2O)c(=O)n1 (stereo not drawn) | > 100

test system: NCI-H226 lung; assay: NCI-60 cell line screen, 48 h

Row | Compound | TGI [µM]
44 | N#C/C(=C/c1cccc2ccccc12)C(=O)c1ccccc1 | 47.9
45 | CCc1n[nH]c(=S)n1/N=C/c1ccc(-c2ccc([N+](=O)[O-])cc2)o1 | > 100
46 | CN(C)C(=S)NC(=S)Nc1ccc2ccccc2c1 | 31.5
47 | CCCCCCCCCCCCCCCC(=O)Nc1ccn(C2OC(CO)C(O)C2O)c(=O)n1 (stereo not drawn) | > 100

test system: NCI/ADR-RES ovarian; assay: NCI-60 cell line screen, 48 h

Row | Compound | TGI [µM]
48 | CN(C)C(=S)NC(=S)Nc1ccc2ccccc2c1 | 59.6
49 | CCCCCCCCCCCCCCCC(=O)Nc1ccn(C2OC(CO)C(O)C2O)c(=O)n1 (stereo not drawn) | > 100

test system: MALME-3M melanoma; assay: NCI-60 cell line screen, 48 h

Row | Compound | TGI [µM]
50 | N#C/C(=C/c1cccc2ccccc12)C(=O)c1ccccc1 | 47.6
51 | CCc1n[nH]c(=S)n1/N=C/c1ccc(-c2ccc([N+](=O)[O-])cc2)o1 | > 100
52 | CN(C)C(=S)NC(=S)Nc1ccc2ccccc2c1 | 35.1
53 | CCCCCCCCCCCCCCCC(=O)Nc1ccn(C2OC(CO)C(O)C2O)c(=O)n1 (stereo not drawn) | > 100

test system: HOP-62 NSCLC; assay: NCI-60 cell line screen, 48 h

Row | Compound | TGI [µM]
54 | N#C/C(=C/c1cccc2ccccc12)C(=O)c1ccccc1 | 41.1
55 | CCc1n[nH]c(=S)n1/N=C/c1ccc(-c2ccc([N+](=O)[O-])cc2)o1 | > 100
56 | CN(C)C(=S)NC(=S)Nc1ccc2ccccc2c1 | 46.2
57 | CCCCCCCCCCCCCCCC(=O)Nc1ccn(C2OC(CO)C(O)C2O)c(=O)n1 (stereo not drawn) | > 88

test system: DMS 114 small cell lung; assay: NCI-60 cell line screen, 48 h

Row | Compound | TGI [µM]
58 | N#C/C(=C/c1cccc2ccccc12)C(=O)c1ccccc1 | > 100
